The subject of series [1] is Jurkat. Briefly: Immunosuppressive activity in human PMA/ionomycin stimulated Jurkat T cells assessed as suppression of IL2 production pretreated with cells followed by PMA/ionomycin stimulation measured after 13 hrs by ELISA. Format: functional, cell-based. For orientation: ELISA stands for enzyme-linked immunosorbent assay.
Series [2] deals with Jurkat. The series can be described thus: Immunosuppressive activity in human anti-CD3/anti-CD28 stimulated Jurkat T cells assessed as suppression of IL2 production at 10 uM pretreated with cells followed by anti-CD3/CD28 stimulation measured after 13 hrs by ELISA. It counts as functional.
A short description of series [3]: Cytotoxicity against human Jurkat T cells assessed as cell survival at 10 uM measured after 3 days by MTT assay. It counts as toxicity, cell-based. The settings on record: read-out: Survival. A general note: Tetrazolium dyes change colour on reduction, which living cells bring about.
Series [4] concerns Jurkat. Briefly: Immunosuppressive activity in human PMA/ionomycin stimulated Jurkat T cells assessed as suppression of IL2 production at 10 uM pretreated with cells followed by PMA/ionomycin stimulation measured after 13 hrs by ELISA. Format: functional.
The nature of series [5]: Half life in human liver S9 fraction at 5 uM in presence of NADPH by LC-MS/MS analysis. Format: ADME, subcellular.
For series [6], the system named is Jurkat. Briefly: Inhibition of NFkappaB activation in human anti-CD3/anti-CD28 stimulated Jurkat T cells at 10 uM measured by renilla luciferase reporter gene assay relative to control. It counts as cell-based.
Series [7] can be described thus: Half life in rat liver […] S9 fraction at 5 uM in presence of NADPH by LC-MS/MS analysis. Format: ADME, subcellular. (In general: Liver microsomes are a subcellular fraction often used to study metabolism.)
In series [8] the target is T1, Nuclear factor of activated T-cells, cytoplasmic 1 (Homo sapiens) (UniProt O95644).
T1 sequence (whole entry): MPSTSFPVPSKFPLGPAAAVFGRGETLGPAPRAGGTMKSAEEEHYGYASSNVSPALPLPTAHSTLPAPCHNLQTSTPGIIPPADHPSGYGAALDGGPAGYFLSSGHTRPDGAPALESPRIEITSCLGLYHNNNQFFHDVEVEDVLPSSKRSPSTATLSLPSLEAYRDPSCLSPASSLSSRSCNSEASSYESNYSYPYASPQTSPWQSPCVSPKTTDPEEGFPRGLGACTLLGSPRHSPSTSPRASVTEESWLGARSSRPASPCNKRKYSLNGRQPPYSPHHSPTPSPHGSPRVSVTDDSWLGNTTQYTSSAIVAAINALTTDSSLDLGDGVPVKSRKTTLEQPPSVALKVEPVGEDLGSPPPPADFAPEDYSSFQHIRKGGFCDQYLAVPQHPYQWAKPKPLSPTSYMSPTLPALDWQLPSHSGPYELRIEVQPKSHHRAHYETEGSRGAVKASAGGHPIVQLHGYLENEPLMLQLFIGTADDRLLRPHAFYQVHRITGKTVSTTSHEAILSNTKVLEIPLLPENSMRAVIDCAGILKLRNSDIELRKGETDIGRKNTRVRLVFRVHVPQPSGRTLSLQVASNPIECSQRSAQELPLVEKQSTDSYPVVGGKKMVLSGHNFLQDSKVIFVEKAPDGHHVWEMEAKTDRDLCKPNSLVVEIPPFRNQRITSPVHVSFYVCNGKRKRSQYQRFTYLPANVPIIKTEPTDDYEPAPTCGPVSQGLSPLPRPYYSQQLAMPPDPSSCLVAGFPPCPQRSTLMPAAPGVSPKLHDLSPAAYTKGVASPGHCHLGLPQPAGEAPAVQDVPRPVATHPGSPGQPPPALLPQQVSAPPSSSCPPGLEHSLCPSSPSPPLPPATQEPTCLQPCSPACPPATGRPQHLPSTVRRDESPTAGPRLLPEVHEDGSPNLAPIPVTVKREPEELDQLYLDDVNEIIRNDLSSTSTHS
The series can be described thus: Reduction in NFATc1 nuclear localization in human anti-CD3/anti-CD28 stimulated Jurkat T cells at 10 ug measured after 15 mins by SDS-PAGE and immunoblot analysis. It counts as cell-based.

The target of series [9] is T2, Inhibitor of nuclear factor kappa-B kinase subunit beta (Homo sapiens) (UniProt O14920).
T2 sequence (whole entry): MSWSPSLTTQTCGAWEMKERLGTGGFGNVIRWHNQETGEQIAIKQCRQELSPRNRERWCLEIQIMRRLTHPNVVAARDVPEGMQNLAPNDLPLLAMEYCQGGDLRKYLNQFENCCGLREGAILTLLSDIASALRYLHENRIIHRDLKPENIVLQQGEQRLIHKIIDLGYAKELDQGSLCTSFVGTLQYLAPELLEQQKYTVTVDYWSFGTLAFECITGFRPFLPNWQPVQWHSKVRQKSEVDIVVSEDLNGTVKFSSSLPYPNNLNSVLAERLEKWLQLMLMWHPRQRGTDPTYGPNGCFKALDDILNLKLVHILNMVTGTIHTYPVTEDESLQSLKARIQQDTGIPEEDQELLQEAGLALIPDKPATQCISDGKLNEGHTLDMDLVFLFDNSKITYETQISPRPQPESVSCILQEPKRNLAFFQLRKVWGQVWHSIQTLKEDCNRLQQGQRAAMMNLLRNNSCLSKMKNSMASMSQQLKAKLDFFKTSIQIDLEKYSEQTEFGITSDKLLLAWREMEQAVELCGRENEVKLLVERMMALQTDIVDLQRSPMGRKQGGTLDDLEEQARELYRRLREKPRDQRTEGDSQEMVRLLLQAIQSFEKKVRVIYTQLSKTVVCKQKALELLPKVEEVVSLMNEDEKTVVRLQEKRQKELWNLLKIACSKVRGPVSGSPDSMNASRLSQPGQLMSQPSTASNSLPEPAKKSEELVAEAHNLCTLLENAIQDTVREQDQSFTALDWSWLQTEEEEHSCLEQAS
The series can be described thus: Inhibition of recombinant full length human N-terminal His6-tagged IKKbeta expressed in baculovirus infected sf21 cells at 10 uM using IKKtide as substrate after 40 mins in presence of [gamma33P]ATP by scintillation counting method relative to control.

Series [10] in a line: Half life in mouse liver […] S9 fraction at 5 uM in presence of NADPH by LC-MS/MS analysis. It counts as ADME, subcellular.
Series [11] addresses T3, NF-kappa-B inhibitor alpha (Homo sapiens) (UniProt P25963).
T3 sequence (whole entry): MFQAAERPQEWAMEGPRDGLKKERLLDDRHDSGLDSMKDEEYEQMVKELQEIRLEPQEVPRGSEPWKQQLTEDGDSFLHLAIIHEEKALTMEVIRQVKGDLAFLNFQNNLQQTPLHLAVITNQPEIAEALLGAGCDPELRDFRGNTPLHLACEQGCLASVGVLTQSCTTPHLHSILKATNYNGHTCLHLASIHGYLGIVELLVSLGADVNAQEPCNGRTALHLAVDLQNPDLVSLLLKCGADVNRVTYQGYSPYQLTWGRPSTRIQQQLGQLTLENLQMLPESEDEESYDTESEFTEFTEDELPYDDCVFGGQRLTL
Briefly: Inhibition of IkappaBalpha phosphorylation in human anti-CD3/anti-CD28 stimulated Jurkat T cells at 10 uM pretreated with cells followed by anti-CD3/anti-CD28 stimulation measured up to 60 mins immunoblot analysis. It counts as cell-based.

The target of series [12] is T4, CYP2C9 (Homo sapiens, UniProt P11712). The series can be described thus: Inhibition of recombinant human CYP2C9 expressed in baculosomes at 1 uM preincubated with protein prior to substrate addition measured after 40 mins in presence of NADP regeneration system by fluorimetric analysis. It counts as ADME.
T4 sequence (P11712 whole entry): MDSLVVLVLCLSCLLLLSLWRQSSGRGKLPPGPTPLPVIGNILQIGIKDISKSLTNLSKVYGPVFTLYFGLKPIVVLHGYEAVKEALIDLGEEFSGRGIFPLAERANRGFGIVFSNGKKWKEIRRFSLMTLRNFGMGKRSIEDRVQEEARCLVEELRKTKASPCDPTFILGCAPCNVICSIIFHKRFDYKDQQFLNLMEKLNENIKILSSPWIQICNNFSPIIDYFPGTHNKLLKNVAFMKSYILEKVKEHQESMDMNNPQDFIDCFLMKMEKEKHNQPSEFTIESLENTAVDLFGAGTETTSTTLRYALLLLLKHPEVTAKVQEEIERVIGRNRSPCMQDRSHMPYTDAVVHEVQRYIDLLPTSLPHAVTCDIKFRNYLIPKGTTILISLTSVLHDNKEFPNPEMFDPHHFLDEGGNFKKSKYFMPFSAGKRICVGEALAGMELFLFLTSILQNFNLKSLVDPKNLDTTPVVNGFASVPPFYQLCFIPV
For series [13], the target named is T4, CYP2C9. Briefly: Inhibition of recombinant human CYP2C9 expressed in baculosomes at 10 uM preincubated with protein prior to substrate addition measured after 40 mins in presence of NADP regeneration system by fluorimetric analysis. It counts as ADME.

Molecules are shown by their SMILES. Activity calls are given as the source filed them.

As a reminder, the IC50 is the concentration that gives 50% inhibition. Usually inhibition stands for how much of the control response was suppressed. In general, half-life refers to the time needed for the level to fall by half in the phase considered.

For `O=C(NCCc1ccccc1)c1cc2c([N+](=O)[O-])cccc2n(Cc2ccc(OC(F)(F)F)cc2)c1=O`, the half-inhibitory concentration (IC50) in the series on Jurkat [1] was 160 nM. In addition, the inhibition at 10 µM in the series with Jurkat [2] was found to be 79%. Moreover, the viability at 72 h, 10 µM in series [3] turned out to be 96%.
`CC(C)c1ccc(Cn2c(=O)c(C(=O)NCCc3ccccc3)cc3c(Cl)cccc32)cc1`: the IC50 in the series on Jurkat [1] was 256 nM. For the same molecule, in series [3], the viability at 72 h, 10 µM came out at 91%.
The matching figures for `CCc1ccc(Cn2c(=O)c(C(=O)NCCc3ccccc3)cc3c(Cl)cccc32)cc1`: 401 nM and 97%.
Regarding `CCc1ccc(Cn2c(=O)c(C(=O)NCCc3ccccc3)cc3c([N+](=O)[O-])cccc32)cc1`, the half-maximal inhibitory concentration (IC50) in the series with Jurkat [1] came to 155 nM. The inhibition at 10 µM in the series with Jurkat [2] is 81%. Besides, the viability at 72 h, 10 µM in series [3] is 96%.
On to `O=C(NCCc1ccccc1)c1cc2c([N+](=O)[O-])cccc2n(Cc2ccc(F)cc2)c1=O`, for which the IC50 with Jurkat [1] came to 720 nM. Besides, in series [3], the viability at 72 h, 10 µM came out at 98%.
The matching figures for `COc1ccc(Cn2c(=O)c(C(=O)NCCc3ccccc3)cc3c([N+](=O)[O-])cccc32)cc1`: 924 nM and 96%.
For `O=C(NCCc1ccccc1)c1cc2c([N+](=O)[O-])cccc2n(Cc2ccc([N+](=O)[O-])cc2)c1=O` the same measures were 353 nM and 97%.
On to `CCN(C(=O)c1c(O)c2c(Cl)cccc2n(C)c1=O)c1ccccc1` [LAQUINIMOD], for which the inhibition at 10 µM with Jurkat [4] came to 16%.
In the case of `CC(C)c1ccc(Cn2c(=O)c(C(=O)NCCc3ccccc3)cc3c([N+](=O)[O-])cccc32)cc1`, the half-life at 5 µM in series [5], in series [7] and in series [10] was 7 min each time. For the same molecule, the inhibition result (in the series with Jurkat [6]; in [8]; in [11]) was “Active” throughout. Also, the IC50 with Jurkat [1] turned out to be 80 nM. In series [9], the inhibition was found to be 29%. Also, the inhibition at 10 µM in the series on Jurkat [2] is 83%. Moreover, the inhibition at 40 min, 1 µM at CYP2C9 [12] stood at 30%. In addition, in series [3], the viability at 72 h, 10 µM turned out to be 93%. In addition, on CYP2C9 [13], the inhibition at 40 min, 10 µM turned out to be 65%.
With `CC(C)(C)c1ccc(Cn2c(=O)c(C(=O)NCCc3ccccc3)cc3c([N+](=O)[O-])cccc32)cc1`, the IC50 in the series on Jurkat [1] was determined as 386 nM. Also, the viability at 72 h, 10 µM in series [3] stood at 94%.

The values above are taken from ChEMBL document CHEMBL3860071, “Discovery and structure-activity relationship studies of quinolinone derivatives as potent IL-2 suppressive agents” (Bioorg Med Chem, 2016).
